Tested on: human normal peripheral blood monocyte
Experiment: Influence of the artificially synthesized peptide on normal cell genes: coculture 7 hr, DNA chip system (Clontech), about 55000 human genes (Table 4)
Assay type: cell-based
Method: (a) The peptide obtained in Example 3 was added to a human normal peripheral blood monocyte culture system (10 to 100 μg peptide/1×10^6 to 1×10^7 monocytes), and they were cocultured for 7 hr. Then, mRNA was extracted from the monocytes and was applied to analysis for up-regulation and down-regulation in respect to about 55000 human genes by using DNA chip system (Clontech).

[1] = Enhanced Gene, Immune System Gene, Gene No. 21607, colony stimulating factor 1 (macrophage) (CSF1), transcript variant 1
[2] = Enhanced Gene, Immune System Gene, Gene No. 22100, IL5-CI0001-181000-178-f03 CI0001 Homo sapiens cDNA
[3] = Enhanced Gene, Immune System Gene, Gene No. 22254, interleukin 4 (IL4), transcript variant 1
[4] = Enhanced Gene, Immune System Gene, Gene No. 25767, tumor necrosis factor (TNF superfamily, member 2) (TNF)
[5] = Enhanced Gene, Immune System Gene, Gene No. 28615, IL3-UT0117-080301-496-D07 UT0117 Homo sapiens cDNA
[6] = Enhanced Gene, Immune System Gene, Gene No. 29703, chemokine (C—X—C motif) ligand 9 (CXCL9)
[7] = Enhanced Gene, Immune System Gene, Gene No. 45170, transforming growth factor beta 1 induced transcript 1 (TGFB1I1)
[8] = Enhanced Gene, Immune System Gene, Gene No. 51904, interleukin 1 family, member 8 (eta) (IL1F8), transcript variant 1
[9] = Enhanced Gene, Oncogene, Gene No. 2183, neuro-oncological ventral antigen 1 (NOVA1), transcript variant 1
[10] = Enhanced Gene, Oncogene, Gene No. 3642, RAB2, member RAS oncogene family (RAB2)
[11] = Enhanced Gene, Oncogene, Gene No. 3858, preferentially expressed antigen in melanoma (PRAME), transcript variant 3
[12] = Enhanced Gene, Oncogene, Gene No. 4210, RAS-like, family 11, member A (RASL11A)
[13] = Enhanced Gene, Oncogene, Gene No. 6231, breast carcinoma amplified sequence 1 (BCAS1)
[14] = Enhanced Gene, Oncogene, Gene No. 6329, mutated in colorectal cancers (MCC)
[15] = Enhanced Gene, Oncogene, Gene No. 7394, HELA CELLS COT 25-NORMALIZED cDNA clone CS0DK007YM05 3-PRIME
[16] = Enhanced Gene, Oncogene, Gene No. 8431, Ras-associated protein Rap1 (RBJ)
[17] = Enhanced Gene, Oncogene, Gene No. 8440, mab-21-like 2 (C elegans) (MAB21L2)
[18] = Enhanced Gene, Oncogene, Gene No. 14195, B-cell translocation gene 4 (BTG4)
[19] = Enhanced Gene, Oncogene, Gene No. 18829, v-myc myelocytomatosis viral related oncogene, neuroblastoma derived (avian) (MYCN)
[20] = Enhanced Gene, Oncogene, Gene No. 21713, zn87b11y5 Stratagene lung carcinoma 937218 cDNA clone IMAGE: 565149 5′
[21] = Enhanced Gene, Oncogene, Gene No. 22388, zb91f05s1 Soares_parathyroid_tumor NbHPA cDNA clone IMAGE: 320193 3′
[22] = Enhanced Gene, Oncogene, Gene No. 22675, endogenous retroviral family W, env(C7), member 1 (syncytin) (ERVWE1), mRNA
[23] = Enhanced Gene, Oncogene, Gene No. 24910, platelet-derived growth factor beta polypeptide (simian sarcoma viral (v-sis) oncogene homolog) (PDGFB), transcript variant 2
[24] = Enhanced Gene, Oncogene, Gene No. 29317, T-cell leukemia/lymphoma 6 (TCL6), transcript variant TCL6a1
[25] = Enhanced Gene, Oncogene, Gene No. 32050, disrupted in renal carcinoma 1 (DIRC1)
[26] = Enhanced Gene, Oncogene, Gene No. 34854, NEUROBLASTOMA COT 25-NORMALIZED cDNA clone CS0DC018YE24 3-PRIME
[27] = Enhanced Gene, Oncogene, Gene No. 34979, yu38e06r1 Soares ovary tumor NbHOT cDNA clone IMAGE: 236098 5′
[28] = Enhanced Gene, Oncogene, Gene No. 36631, RAB43, member RAS oncogene family (RAB43), mRNA
[29] = Enhanced Gene, Oncogene, Gene No. 37781, NEUROBLASTOMA COT 25-NORMALIZED cDNA clone CS0DC011YD03 5-PRIME
[30] = Enhanced Gene, Oncogene, Gene No. 38566, RAS protein activator like 2, mRNA (cDNA clone IMAGE: 5399841), with apparent retained intron
[31] = Enhanced Gene, Oncogene, Gene No. 46997, clone N11 NTera2D1 teratocarcinoma mRNA
[32] = Suppressed Gene, Cancer Suppressing Gene, Gene No. 8280, brain specific protein (CGI-38)
[33] = Suppressed Gene, Cancer Suppressing Gene, Gene No. 11261, breast cancer metastasis suppressor 1 (BRMS1)
[34] = Suppressed Gene, Cancer Suppressing Gene, Gene No. 11438, serologically defined breast cancer antigen 84 (SDBCAG84), transcript variant 1
[35] = Suppressed Gene, Cancer Suppressing Gene, Gene No. 30909, tumor rejection antigen (gp96) 1 (TRA1)
[36] = Suppressed Gene, Cancer Suppressing Gene, Gene No. 35687, heat shock protein 75 (TRAP1)
[37] = Suppressed Gene, Cancer Suppressing Gene, Gene No. 36334, heat shock 70 kDa protein 14 (HSPA14)
[38] = Suppressed Gene, Cancer Suppressing Gene, Gene No. 37600, AHA1, activator of heat shock 90 kDa protein ATPase homolog 1 (yeast) (AHSA1)
[39] = Suppressed Gene, Cancer Suppressing Gene, Gene No. 50395, Ras suppressor protein 1 (RSU1), transcript variant 1
[40] = Suppressed Gene, Cancer Suppressing Gene, Gene No. 52111, leukemia cell normalized cDNA library cDNA clone LEU1757_26_C2
[41] = Suppressed Gene, Immune System Gene, Gene No. 4403, programmed cell death 4 (neoplastic transformation inhibitor) (PDCD4), transcript variant 2
[42] = Suppressed Gene, Immune System Gene, Gene No. 4899, interferon (alpha, beta and omega) receptor 2 (IFNAR2), transcript variant 1
[43] = Suppressed Gene, Immune System Gene, Gene No. 8634, perform 1 (pore forming protein) (PRF1)
[44] = Suppressed Gene, Immune System Gene, Gene No. 8922, interferon induced transmembrane protein 1 (9-27) (IFITM1)
[45] = Suppressed Gene, Immune System Gene, Gene No. 9938, interleukin 17D (IL17D)
[46] = Suppressed Gene, Immune System Gene, Gene No. 10204, interferon-related developmental regulator 1 (IFRD1)
[47] = Suppressed Gene, Immune System Gene, Gene No. 10791, HLA-B associated transcript 5 (BAT5)
[48] = Suppressed Gene, Immune System Gene, Gene No. 11236, natural killer cell group 7 sequence (NKG7), mRNA
[49] = Suppressed Gene, Immune System Gene, Gene No. 11635, thymosin, beta 4, Y-linked (TMSB4Y)

## the Peptide (QPQFGRRMESK; Human squamous cell carcinoma)
[1]
  Enhancement Ratio: 7.233
  Expression Amount after Treatment with the Peptide: 24.93
[2]
  Enhancement Ratio: 1.853
  Expression Amount after Treatment with the Peptide: 608.5
[3]
  Enhancement Ratio: 4.547
  Expression Amount after Treatment with the Peptide: 122.7
[4]
  Enhancement Ratio: 37.72
  Expression Amount after Treatment with the Peptide: 4927
[5]
  Enhancement Ratio: 7.555
  Expression Amount after Treatment with the Peptide: 20.69
[6]
  Enhancement Ratio: 30.05
  Expression Amount after Treatment with the Peptide: 19.83
Enhanced Gene, Immune System Gene, Gene No. 30707, immunoglobulin superfamily, member 4C (IGSF4C)
  Enhancement Ratio: 7.379
[7]
  Enhancement Ratio: 2.225
  Expression Amount after Treatment with the Peptide: 85.26
[8]
  Enhancement Ratio: 4.932
  Expression Amount after Treatment with the Peptide: 11.37
[9]
  Enhancement Ratio: 2.53
  Expression Amount after Treatment with the Peptide: 8.623
[10]
  Enhancement Ratio: 2.032
  Expression Amount after Treatment with the Peptide: 3307
[11]
  Enhancement Ratio: 2.462
  Expression Amount after Treatment with the Peptide: 22.62
[12]
  Enhancement Ratio: 6.36
  Expression Amount after Treatment with the Peptide: 393.7
[13]
  Enhancement Ratio: 9.349
  Expression Amount after Treatment with the Peptide: 5.453
[14]
  Enhancement Ratio: 1.786
  Expression Amount after Treatment with the Peptide: 67.54
[15]
  Enhancement Ratio: 11.83
  Expression Amount after Treatment with the Peptide: 350.3
[16]
  Enhancement Ratio: 2.435
  Expression Amount after Treatment with the Peptide: 18.61
[17]
  Enhancement Ratio: 2.175
  Expression Amount after Treatment with the Peptide: 15.71
[18]
  Enhancement Ratio: 2.567
  Expression Amount after Treatment with the Peptide: 7.219
[19]
  Enhancement Ratio: 2.225
  Expression Amount after Treatment with the Peptide: 15.32
[20]
  Enhancement Ratio: 45.9
  Expression Amount after Treatment with the Peptide: 7.742
[21]
  Enhancement Ratio: 9.47
  Expression Amount after Treatment with the Peptide: 571.2
[22]
  Enhancement Ratio: 2.498
  Expression Amount after Treatment with the Peptide: 204.4
[23]
  Enhancement Ratio: 1.898
  Expression Amount after Treatment with the Peptide: 55.05
[24]
  Enhancement Ratio: 3.478
  Expression Amount after Treatment with the Peptide: 10.06
[25]
  Enhancement Ratio: 28.44
  Expression Amount after Treatment with the Peptide: 9.806
[26]
  Enhancement Ratio: 26.92
  Expression Amount after Treatment with the Peptide: 1.098
[27]
  Enhancement Ratio: 9.116
  Expression Amount after Treatment with the Peptide: 24.17
[28]
  Enhancement Ratio: 5.871
  Expression Amount after Treatment with the Peptide: 417.5
[29]
  Enhancement Ratio: 12.79
  Expression Amount after Treatment with the Peptide: 32.41
[30]
  Enhancement Ratio: 1.982
  Expression Amount after Treatment with the Peptide: 14.55
[31]
  Enhancement Ratio: 21.14
  Expression Amount after Treatment with the Peptide: 236.2
[32]
  Expression Amount after Treatment with the Peptide: 9
  Suppression Ratio: 84.27
[33]
  Expression Amount after Treatment with the Peptide: 6.257
  Suppression Ratio: 60.59
[34]
  Expression Amount after Treatment with the Peptide: 14.74
  Suppression Ratio: 81.87
[35]
  Expression Amount after Treatment with the Peptide: 11.47
  Suppression Ratio: 86.08
[36]
  Expression Amount after Treatment with the Peptide: 0.2252
  Suppression Ratio: 461.4
[37]
  Expression Amount after Treatment with the Peptide: 2.08
  Suppression Ratio: 164.2
[38]
  Expression Amount after Treatment with the Peptide: 8.429
  Suppression Ratio: 116.6
[39]
  Expression Amount after Treatment with the Peptide: 8.763
  Suppression Ratio: 53.66
[40]
  Expression Amount after Treatment with the Peptide: 13.6
  Suppression Ratio: 43.65
[41]
  Expression Amount after Treatment with the Peptide: 21.97
  Suppression Ratio: 40.6
[42]
  Expression Amount after Treatment with the Peptide: 4.5
  Suppression Ratio: 119.2
[43]
  Expression Amount after Treatment with the Peptide: 10.2
  Suppression Ratio: 92.95
[44]
  Expression Amount after Treatment with the Peptide: 110.9
  Suppression Ratio: 98.91
[45]
  Expression Amount after Treatment with the Peptide: 0.3
  Suppression Ratio: 39.28
[46]
  Expression Amount after Treatment with the Peptide: 9.714
  Suppression Ratio: 71.65
[47]
  Expression Amount after Treatment with the Peptide: 3.429
  Suppression Ratio: 150.9
[48]
  Expression Amount after Treatment with the Peptide: 65.47
  Suppression Ratio: 72.38
[49]
  Expression Amount after Treatment with the Peptide: 2.5
  Suppression Ratio: 42.45
Suppressed Gene, Immune System Gene, Gene No. 11651, implantation-associated protein (DKFZp564K142)
  Expression Amount after Treatment with the Peptide: 12.84
